The values below are quoted from earlier work in patent publication US20090215766A1, “TETRACYCLIC INHIBITORS OF JANUS KINASES” (Incyte Corporation, priority 2004, published 2009).

Data set [1] concerns NOD mouse model of autoimmune type 1 diabetes.
The test system of data set [2] is myeloid dendritic cells (DCs). The following applies: CD40-induced maturation of myeloid DCs.
The test system of data set [3] is IL-6-dependent MM cell lines.

Molecules are shown by their SMILES.

With `COc1cc2ncnc(Nc3ccc(O)cc3)c2cc1OC` [JANEX-1], the onset of diabetes result in data set [1] was “delayed the onset of diabetes”.

As for `COc1cc2ncnc(Nc3ccc(O)c(Br)c3)c2cc1OC` [WHI-P-154], the “CD40-induced DC maturation effects (costimulatory molecule expression, IL-12 production, allogeneic stimulatory capacity)” value in data set [2] is reported as “prevented these effects”.

As for `N#C/C(=C\c1ccc(O)c(O)c1)C(=O)NCc1ccccc1` [tyrphostin AG490], in data set [3], the “ERK2 and STAT3 phosphorylation” value is reported as “inhibited”; the JAK2 kinase activity result is listed as “inhibited”; the apoptosis entry is listed as “induced”; the cell proliferation result is “suppressed”.
